According to patent publication US20230149537A1, “VACCINES, ADJUVANTS, AND METHODS OF GENERATING AN IMMUNE RESPONSE” (priority 2020, published 2023):

How the values were obtained:
SARS-CoV-2 Spike [1] = tested on: SARS-CoV-2 Spike; parameters: species or system C57BL/6 mice; details: mouse, in vivo, ip
T cell = tested on: T cell; parameters: species or system C57BL/6 mice; details: mouse, in vivo, ip
SARS-CoV-2 Spike [2] = tested on: SARS-CoV-2 Spike; parameters: species or system  mice; details: mouse, in vivo

Compound: CCCCCCCCCCCC(=O)CC(=O)N[C@H](COCCCCCCCCCC)COP(=O)([O-])OCCNC(=O)NCCOP(=O)([O-])OC[C@@H](COCC[C@@H](CCCCCCC)OC(=O)CCCCCCCCCCC)NC(=O)CC(=O)CCCCCCCCCCC.[Na+].[Na+] [Group E6020]
- IgG profile (IgG2/IgG1) (SARS-CoV-2 Spike [1]): significant higher IgG2 than with Alum alone
- Th1-type T cell responses (T cell): significantly enhanced Th1-type T cell responses
- IgG1 and IgG2 Ab binding titers (SARS-CoV-2 Spike [2]): increase in IgG2 production
